Data as given in patent publication US7435837B2, “Dihydrobenzofuranyl alkanamine derivatives and methods for using same” (Wyeth, priority 2003, dated 2008).

Target: T1, human 5-hydroxytryptamine-2C (h5-HT2C) receptor (Homo sapiens, UniProt P28335)
T1 construct: expressed in transfected cells; host or cells: CHO (Chinese Hamster Ovary) cells; membranes
T1 sequence (P28335 33-458): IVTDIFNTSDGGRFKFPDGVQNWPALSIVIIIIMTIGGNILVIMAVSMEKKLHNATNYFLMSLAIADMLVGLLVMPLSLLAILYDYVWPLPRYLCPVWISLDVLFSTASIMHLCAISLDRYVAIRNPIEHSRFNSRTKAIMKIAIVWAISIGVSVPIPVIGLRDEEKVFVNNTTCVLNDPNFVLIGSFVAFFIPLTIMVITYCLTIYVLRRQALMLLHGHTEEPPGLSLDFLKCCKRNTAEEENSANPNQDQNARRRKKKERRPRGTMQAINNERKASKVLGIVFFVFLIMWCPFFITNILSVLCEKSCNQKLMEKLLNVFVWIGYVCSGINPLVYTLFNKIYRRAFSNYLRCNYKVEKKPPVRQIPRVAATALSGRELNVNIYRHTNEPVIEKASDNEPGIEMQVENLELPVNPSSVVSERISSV
Test: [125I]DOI binding to membranes of CHO cells expressing the human 5-HT2C receptor
Conditions: [125I]DOI radioligand, CHO cell membranes, room temperature 60 min; read-out: 5-HT2C Affinity Ki

Ki | SMILES
7 nM | COc1cc2c(c(-c3ccccc3C)c1)OC(CN)C2 (racemic) [Example 358, (±)-{[7-(2-methylphenyl)-5-methoxy-2,3-dihydro-1-benzofuran-2-yl]methyl}amine]
965 nM | CNCC1Cc2cc(-c3ccccc3)cc(-c3cccc(OC)c3)c2O1 (racemic) [Example 515, (±)-{[7-(3-methoxyphenyl)-5-phenyl-2,3-dihydro-1-benzofuran-2-yl]methyl}methylamine]
43 nM | NCC1Cc2cccc(-c3ccc4ccccc4c3)c2O1 (racemic) [Example 39, (±)-1-[7-(2-naphthyl)-2,3-dihydro-1-benzofuran-2-yl]methanamine]
130 nM | CC1(CN)Cc2cc(Cl)cc(-c3ccsc3)c2O1 (racemic) [Example 113, (±)-(5-chloro-2-methyl-7-thien-3-yl-2,3-dihydro-1-benzofuran-2-yl)methylamine]
107 nM | NCC1Cc2cc(C(F)(F)F)cc(-c3cccc(Cl)c3)c2O1 (racemic) [Example 320, (±)-{[5-(trifluoromethyl)-7-(3-chlorophenyl)-2,3-dihydro-1-benzofuran-2-yl]methyl}amine]
78 nM | NCC1Cc2cccc(/C=C/c3ccccc3)c2O1 (racemic) [Example 119, (±)-1-{7-[(E)-2-phenylvinyl]-2,3-dihydro-1-benzofuran-2-yl}methanamine]
247 nM | NCC1Cc2cccc(Nc3cccc(OC(F)(F)F)c3)c2O1 (racemic) [Example 187, (±)-N-[2-(aminomethyl)-2,3-dihydro-1-benzofuran-7-yl]-N-(3-trifluoromethoxy)phenyl]amine]
483 nM | COc1cccc(-c2cccc3c2OC(CN)C3)c1 (single isomer, unassigned; (-)) [Example 134, (−)-1-[7-(3-methoxyphenyl)-2,3-dihydro-1-benzofuran-2-yl]methanamine]
79 nM | COc1cc2c(c(C(C)(C)C)c1)OC(CN)C2 (single isomer, unassigned; (-)) [Example 115, (−)-1-(7-tert-butyl-5-methoxy-2,3-dihydro-1-benzofuran-2-yl)methanamine]
124 nM | NCC1Cc2cccc(-c3cccc(C(F)(F)F)c3)c2O1 (single isomer, unassigned; (+)) [Example 136, (+)-1-{7-[3-(trifluoromethyl)phenyl]-2,3-dihydro-1-benzofuran-2-yl}methanamine]
385 nM | NCC1Cc2cc(-c3ccccc3)cc(-c3cc(Cl)ccc3Cl)c2O1 (racemic) [Example 355, (±)-{[7-(2,5-dichlorophenyl)-5-phenyl-2,3-dihydro-1-benzofuran-2-yl]methyl}amine]
527 nM | COc1cc2c(c(C(C)(C)C)c1)OC(CN)C2 (single isomer, unassigned; (+)) [Example 116, (+)-1-(7-tert-butyl-5-methoxy-2,3-dihydro-1-benzofuran-2-yl)methanamine]
78 nM | CNCC1Cc2cc(OC)cc(-c3ccc(F)c(Cl)c3)c2O1 (racemic) [Example 503, (±)-{[7-(3-chloro-4-fluorophenyl)-5-methoxy-2,3-dihydro-1-benzofuran-2-yl]methyl}methylamine]
372 nM | CNCC1Cc2cc(-c3ccc(OC)cc3)cc(F)c2O1 (racemic) [Example 542, (±)-{7-fluoro-5-[4-methoxyphenyl]-2,3-dihydro-1-benzofuran-2-yl}methyl)methylamine]
1.1 nM | CCc1cc2c(c(-c3ccccc3C)c1)OC(CN)C2 (racemic) [Example 305, (±)-{[5-ethyl-7-(2-methylphenyl)-2,3-dihydro-1-benzofuran-2-yl]methyl}amine]
178 nM | NCC1Cc2cccc(Nc3cccc(F)c3)c2O1 (racemic) [Example 183, (±)-N-[2-(aminomethyl)-2,3-dihydro-1-benzofuran-7-yl]-N-(3-fluorophenyl)amine]
310 nM | NCC1Cc2cccc(Nc3ccc(F)cc3)c2O1 (racemic) [Example 178, (±)-N-[2-(aminomethyl)-2,3-dihydro-1-benzofuran-7-yl]-N-(4-fluorophenyl)amine]
